The subject of this experiment is GSK3β Ser9 and GSK3β Tyr216 phosphorylation. In words: GSK3β phosphorylation (Ser9, Tyr216) immunoblot in HEK293 cells. It counts as cell-based, human. As to conditions: 10 nM 24, 27; 10 nM and 1 µM 29; 30 min. How it is done: HEK293, HAP1, HAP1 CRBN KO and SH-SY5Y cells were plated in either 6 cm plates or 6-well plates at varying densities (0.5–0.7 × 10^6 cells per plate or wells), and MEF cells were plated in 10 cm plates (1–1.2 × 10^6 cells per plate) depending on experimental set up in respective culturing condition as described above. Stock solutions of compounds were prepared as 10 mM in DMSO (Sigma–Aldrich). Working dilutions were made up fresh in DMSO and culturing media or differentiation media was refreshed prior to any compound treatments. For mode of action studies, cells were pre-treated with inhibitors for 2 h: 1 µM MG132 (Merck, 474790-5 mg), 1 µM MLN4924 (Merck, 5054770001) or 1 µM GSK3 inhibitor (compound 29), before treating with PROTACs for 2, 4 or 24 h as indicated in figure legends. Cells were washed twice with ice-cold PBS (Gibco), harvested in PBS and pelleted, cells were resuspended in RIPA buffer supplemented with complete EDTA-free protease inhibitor cocktail (Roche,11873580001, 1/10 mL) and phosSTOP (Roche, 04906845001, 1 tablet/10 mL) for 20 min lysis on ice then cleared via centrifugation at 16,000 × g, 4 °C for 20 min. SH-SY5Y cells were lysed in 500 µL ice-cold lysis buffer (25 mM Tris-HCl (pH 7.4), 50 mM NaF, 100 mM NaCl, 1 mM EDTA, 4 mM EGTA, 1% (v/v) Triton-X-100, 0.09% (w/v) sucrose, 10 mM sodium pyrophosphate, 10 mM sodium vanodate, 0.1% (v/v) β-mercaptoethanol, supplemented with complete mini protease inhibitor tablet (Sigma; 1 tablet/ 10 mL buffer)). Lysates were flash frozen, thawed and centrifugated at 16,000 × g, 4 °C for 20 min. Following clearance of lysates, protein concentrations were determined by the BCA assay (Fisher Scientific, 23225) or Bradford assay (Bio-rad). Five to thirty micrograms of protein from lysates were prepared in 4×LDS buffer (Thermo Fisher) and 50 mM dithiothreitol (DTT) denaturated at 95 °C for 5 min. Proteins were separated on NuPAGE 4–12% Bis-Tris gels (Invitrogen) or 4–12% Novex Tris-glycine gels (Invitrogen) in MOPS buffer (Invitrogen) and transferred onto nitrocellulose membranes using an iBlot3 system (Thermo Fisher Scientific) or nitrocellulose membranes (Cytiva) in cold tris-glycine-methanol buffer (25 mM Tris (pH 7.5), 192 mM glycine, 20% (v/v) methanol). Membranes were blocked with either 5% fat-free milk (Marvel) or 1% (w/v) BSA (Sigma) in TBS-T (20 mM Tris (pH 7.5), 150 mM NaCl, 0.1% (v/v) Tween-20 (Sigma)) at room temperature for 30 min, or in the case of SH-SY5Y assays, 1 h, before incubating with primary antibodies overnight at 4 °C on a rocker. […]

As to `Cn1nc(N2CCC(=O)NC2=O)c2ccc(CN3CCN(Cc4ccc(-c5cn(-c6ccc(-c7cn8nccc(C(=O)Nc9cnccc9N9CCOCC9)c8n7)cc6)nn5)nc4)CC3)cc21` [compound 24], the “impact on GSK3β Ser9 or GSK3β Tyr216 phosphorylation prior to degradation” value was “no impact observed”.

Source of the values: PMC12501029, “Discovery of a CNS active GSK3 degrader using orthogonally reactive linker screening” (Nature Communications, 2025).
